Columns and labels:
Test in all cases: KINOMEscan
Assay type in all cases: binding
Conditions in all cases: read-out: % control activity remaining
GRK7 = target: T1, GRK7 (Homo sapiens, UniProt Q8WTQ7)
T1 construct: purchased Eurofins DiscoverX KINOMEscan
T1 sequence (Q8WTQ7 1-553): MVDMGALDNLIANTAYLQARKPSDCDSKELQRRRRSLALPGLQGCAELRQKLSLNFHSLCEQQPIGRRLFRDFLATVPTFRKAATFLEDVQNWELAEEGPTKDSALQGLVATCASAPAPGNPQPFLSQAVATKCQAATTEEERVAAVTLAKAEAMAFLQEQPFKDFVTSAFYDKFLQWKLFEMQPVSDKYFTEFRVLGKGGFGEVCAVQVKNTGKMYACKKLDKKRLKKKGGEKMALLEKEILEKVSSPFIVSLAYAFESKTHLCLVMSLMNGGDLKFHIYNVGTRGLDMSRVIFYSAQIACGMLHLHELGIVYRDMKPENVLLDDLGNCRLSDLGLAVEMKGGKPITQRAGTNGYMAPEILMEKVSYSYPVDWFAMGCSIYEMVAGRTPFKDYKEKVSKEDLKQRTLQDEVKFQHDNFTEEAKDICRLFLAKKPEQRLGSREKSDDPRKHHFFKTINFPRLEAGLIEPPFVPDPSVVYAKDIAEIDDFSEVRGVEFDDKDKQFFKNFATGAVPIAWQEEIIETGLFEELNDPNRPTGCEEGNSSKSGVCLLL

YANK3 = target: T2, YANK3 (Homo sapiens, UniProt Q86UX6)
T2 construct: purchased Eurofins DiscoverX KINOMEscan

FER = target: T3, FER (Homo sapiens, UniProt P16591)
T3 construct: purchased Eurofins DiscoverX KINOMEscan

HCK = target: T4, HCK (Homo sapiens, UniProt P08631)
T4 construct: purchased Eurofins DiscoverX KINOMEscan

LIMK1 = target: T5, LIMK1 (Homo sapiens, UniProt P53667)
T5 construct: purchased Eurofins DiscoverX KINOMEscan

CDK2 = target: T6, CDK2 (Homo sapiens, UniProt P24941)
T6 construct: purchased Eurofins DiscoverX KINOMEscan

YSK1 = target: T7, YSK1 (Homo sapiens, UniProt O00506)
T7 construct: purchased Eurofins DiscoverX KINOMEscan

SgK110 = target: T8, SgK110 (Homo sapiens, UniProt P0C264)
T8 construct: purchased Eurofins DiscoverX KINOMEscan
T8 sequence (P0C264 1-359): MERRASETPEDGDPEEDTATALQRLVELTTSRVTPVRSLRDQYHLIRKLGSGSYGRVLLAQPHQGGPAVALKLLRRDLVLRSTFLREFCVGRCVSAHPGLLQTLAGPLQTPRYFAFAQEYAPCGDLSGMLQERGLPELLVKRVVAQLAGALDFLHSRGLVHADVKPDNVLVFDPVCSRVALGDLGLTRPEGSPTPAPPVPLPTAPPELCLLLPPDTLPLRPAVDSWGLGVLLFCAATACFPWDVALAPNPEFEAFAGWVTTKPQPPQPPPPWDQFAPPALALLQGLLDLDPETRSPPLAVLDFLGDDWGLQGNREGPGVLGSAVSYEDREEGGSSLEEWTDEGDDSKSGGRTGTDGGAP

FLT4 = target: T9, FLT4 (Homo sapiens, UniProt P35916)
T9 construct: purchased Eurofins DiscoverX KINOMEscan

CSNK1A1 = target: T10, CSNK1A1 (Homo sapiens, UniProt P48729)
T10 construct: purchased Eurofins DiscoverX KINOMEscan

CDK7 = target: T11, CDK7 (Homo sapiens, UniProt P50613)
T11 construct: purchased Eurofins DiscoverX KINOMEscan

CSNK1G1 = target: T12, CSNK1G1 (Homo sapiens, UniProt Q9HCP0)
T12 construct: purchased Eurofins DiscoverX KINOMEscan

FGFR2 = target: T13, FGFR2 (Homo sapiens, UniProt P21802)
T13 construct: purchased Eurofins DiscoverX KINOMEscan

[1] = target: T14, ABL1(T315I)-phosphorylated (Homo sapiens, UniProt P00519, T315I)
T14 construct: purchased Eurofins DiscoverX KINOMEscan

LATS2 = target: T15, LATS2 (Homo sapiens, UniProt Q9NRM7)
T15 construct: purchased Eurofins DiscoverX KINOMEscan
T15 sequence (Q9NRM7 1-1088): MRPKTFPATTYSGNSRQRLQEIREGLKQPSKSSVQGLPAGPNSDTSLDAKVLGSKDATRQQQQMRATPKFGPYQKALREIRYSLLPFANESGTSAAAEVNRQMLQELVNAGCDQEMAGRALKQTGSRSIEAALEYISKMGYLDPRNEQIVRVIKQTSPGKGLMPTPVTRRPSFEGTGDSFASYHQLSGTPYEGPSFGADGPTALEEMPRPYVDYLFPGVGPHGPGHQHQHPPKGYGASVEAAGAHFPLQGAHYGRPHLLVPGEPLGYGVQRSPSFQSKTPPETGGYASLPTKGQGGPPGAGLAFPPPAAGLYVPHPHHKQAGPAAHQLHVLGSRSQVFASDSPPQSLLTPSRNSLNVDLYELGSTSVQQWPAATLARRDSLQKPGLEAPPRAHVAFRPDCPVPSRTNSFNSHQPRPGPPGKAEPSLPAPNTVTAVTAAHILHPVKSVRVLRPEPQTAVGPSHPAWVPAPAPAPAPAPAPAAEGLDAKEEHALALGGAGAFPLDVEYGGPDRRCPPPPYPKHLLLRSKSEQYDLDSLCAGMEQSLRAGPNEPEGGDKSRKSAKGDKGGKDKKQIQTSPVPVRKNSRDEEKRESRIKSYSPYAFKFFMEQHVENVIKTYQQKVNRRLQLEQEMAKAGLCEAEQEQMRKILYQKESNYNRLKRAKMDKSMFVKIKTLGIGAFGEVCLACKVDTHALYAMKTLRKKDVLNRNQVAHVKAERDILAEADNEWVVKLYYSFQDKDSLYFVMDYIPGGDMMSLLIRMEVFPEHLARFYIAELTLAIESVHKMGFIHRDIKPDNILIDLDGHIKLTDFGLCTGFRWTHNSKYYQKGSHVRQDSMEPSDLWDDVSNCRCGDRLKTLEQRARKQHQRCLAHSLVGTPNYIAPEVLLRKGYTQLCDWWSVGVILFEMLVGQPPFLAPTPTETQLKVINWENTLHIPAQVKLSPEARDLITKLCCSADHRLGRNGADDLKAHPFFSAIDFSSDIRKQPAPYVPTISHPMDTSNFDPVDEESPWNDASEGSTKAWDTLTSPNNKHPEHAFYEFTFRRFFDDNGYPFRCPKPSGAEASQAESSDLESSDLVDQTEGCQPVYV

T11 sequence (P50613 whole entry): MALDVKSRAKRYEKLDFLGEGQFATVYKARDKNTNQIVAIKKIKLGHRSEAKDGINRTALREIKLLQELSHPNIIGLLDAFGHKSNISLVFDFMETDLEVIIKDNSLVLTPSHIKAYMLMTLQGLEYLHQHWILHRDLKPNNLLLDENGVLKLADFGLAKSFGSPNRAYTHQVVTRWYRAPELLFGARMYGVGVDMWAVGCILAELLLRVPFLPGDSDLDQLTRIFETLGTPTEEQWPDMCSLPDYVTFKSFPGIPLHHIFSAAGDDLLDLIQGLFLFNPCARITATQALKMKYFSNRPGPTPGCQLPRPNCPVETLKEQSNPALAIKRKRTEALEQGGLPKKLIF
T5 sequence (P53667 whole entry): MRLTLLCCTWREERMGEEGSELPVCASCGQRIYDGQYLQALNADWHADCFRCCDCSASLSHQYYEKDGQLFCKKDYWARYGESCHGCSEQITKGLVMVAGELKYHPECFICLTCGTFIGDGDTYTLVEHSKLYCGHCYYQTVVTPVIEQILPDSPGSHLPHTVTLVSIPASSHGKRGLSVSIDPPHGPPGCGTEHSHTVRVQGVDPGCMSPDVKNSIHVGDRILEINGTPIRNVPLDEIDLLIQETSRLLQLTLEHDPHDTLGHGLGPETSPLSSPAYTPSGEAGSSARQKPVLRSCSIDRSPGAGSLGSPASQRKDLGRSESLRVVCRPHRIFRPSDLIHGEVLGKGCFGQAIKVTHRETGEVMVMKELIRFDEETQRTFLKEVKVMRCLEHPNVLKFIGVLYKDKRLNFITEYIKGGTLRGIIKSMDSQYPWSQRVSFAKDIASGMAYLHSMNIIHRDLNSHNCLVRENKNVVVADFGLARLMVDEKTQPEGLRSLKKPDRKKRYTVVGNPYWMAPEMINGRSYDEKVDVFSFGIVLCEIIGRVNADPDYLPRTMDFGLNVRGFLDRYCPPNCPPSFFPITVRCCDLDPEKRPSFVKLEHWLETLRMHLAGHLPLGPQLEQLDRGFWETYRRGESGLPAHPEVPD
T10 sequence (P48729 whole entry): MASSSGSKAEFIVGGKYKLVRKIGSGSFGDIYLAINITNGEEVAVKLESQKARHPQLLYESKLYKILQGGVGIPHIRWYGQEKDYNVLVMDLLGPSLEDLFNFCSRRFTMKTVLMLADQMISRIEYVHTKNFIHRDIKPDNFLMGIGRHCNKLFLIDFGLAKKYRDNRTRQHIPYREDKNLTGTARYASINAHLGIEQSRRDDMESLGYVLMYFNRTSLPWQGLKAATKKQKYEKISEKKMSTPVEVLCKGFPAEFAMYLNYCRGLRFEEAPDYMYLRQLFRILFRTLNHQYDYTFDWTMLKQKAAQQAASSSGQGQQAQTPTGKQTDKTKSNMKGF
T4 sequence (P08631 whole entry): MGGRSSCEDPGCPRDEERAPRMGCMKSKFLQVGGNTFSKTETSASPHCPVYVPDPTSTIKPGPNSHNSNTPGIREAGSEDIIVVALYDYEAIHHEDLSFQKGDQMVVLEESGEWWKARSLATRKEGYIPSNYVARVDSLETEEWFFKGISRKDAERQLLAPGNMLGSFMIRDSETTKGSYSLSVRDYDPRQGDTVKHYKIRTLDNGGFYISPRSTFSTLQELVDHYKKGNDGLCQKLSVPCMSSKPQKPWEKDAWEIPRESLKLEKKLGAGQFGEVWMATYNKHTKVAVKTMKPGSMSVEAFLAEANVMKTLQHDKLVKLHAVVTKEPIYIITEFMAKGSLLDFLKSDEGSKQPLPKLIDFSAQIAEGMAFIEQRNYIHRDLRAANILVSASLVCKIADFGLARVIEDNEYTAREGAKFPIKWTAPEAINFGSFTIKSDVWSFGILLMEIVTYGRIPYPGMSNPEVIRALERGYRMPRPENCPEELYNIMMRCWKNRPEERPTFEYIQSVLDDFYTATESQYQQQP
T3 sequence (P16591 whole entry): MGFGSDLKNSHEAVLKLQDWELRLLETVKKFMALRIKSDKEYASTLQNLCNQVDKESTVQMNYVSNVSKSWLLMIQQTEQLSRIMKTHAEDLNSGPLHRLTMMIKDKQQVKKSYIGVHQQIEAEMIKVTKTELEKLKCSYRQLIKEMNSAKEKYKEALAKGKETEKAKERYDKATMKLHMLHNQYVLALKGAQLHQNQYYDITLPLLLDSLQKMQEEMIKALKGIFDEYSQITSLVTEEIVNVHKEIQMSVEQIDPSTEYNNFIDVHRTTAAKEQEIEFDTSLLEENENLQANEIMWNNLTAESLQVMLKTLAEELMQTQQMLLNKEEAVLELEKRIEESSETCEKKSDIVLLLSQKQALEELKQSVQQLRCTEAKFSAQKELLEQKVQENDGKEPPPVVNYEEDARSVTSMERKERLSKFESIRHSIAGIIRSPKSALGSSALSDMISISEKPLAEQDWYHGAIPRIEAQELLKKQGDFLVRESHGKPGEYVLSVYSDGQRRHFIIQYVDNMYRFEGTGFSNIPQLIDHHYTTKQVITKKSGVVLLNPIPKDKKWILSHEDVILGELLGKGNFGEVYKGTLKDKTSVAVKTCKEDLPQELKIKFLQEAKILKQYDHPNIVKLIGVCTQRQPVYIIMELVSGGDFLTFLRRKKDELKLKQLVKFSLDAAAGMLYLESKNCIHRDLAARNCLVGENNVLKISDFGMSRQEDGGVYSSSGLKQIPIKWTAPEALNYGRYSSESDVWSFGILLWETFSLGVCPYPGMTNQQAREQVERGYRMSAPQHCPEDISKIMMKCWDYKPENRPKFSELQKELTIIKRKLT
T2 sequence (Q86UX6 whole entry): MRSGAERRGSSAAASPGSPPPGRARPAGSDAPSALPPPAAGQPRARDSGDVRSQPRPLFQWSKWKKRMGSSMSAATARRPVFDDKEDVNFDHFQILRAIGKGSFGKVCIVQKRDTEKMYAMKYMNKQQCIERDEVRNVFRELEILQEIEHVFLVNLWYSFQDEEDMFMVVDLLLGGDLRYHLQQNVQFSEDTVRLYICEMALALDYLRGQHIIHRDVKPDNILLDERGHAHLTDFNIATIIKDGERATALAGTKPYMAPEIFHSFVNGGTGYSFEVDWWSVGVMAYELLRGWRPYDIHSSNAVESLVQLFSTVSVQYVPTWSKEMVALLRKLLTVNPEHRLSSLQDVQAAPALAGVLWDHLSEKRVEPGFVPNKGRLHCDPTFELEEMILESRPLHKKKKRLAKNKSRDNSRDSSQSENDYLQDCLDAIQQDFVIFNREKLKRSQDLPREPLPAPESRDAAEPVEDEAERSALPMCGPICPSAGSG
T12 sequence (Q9HCP0 whole entry): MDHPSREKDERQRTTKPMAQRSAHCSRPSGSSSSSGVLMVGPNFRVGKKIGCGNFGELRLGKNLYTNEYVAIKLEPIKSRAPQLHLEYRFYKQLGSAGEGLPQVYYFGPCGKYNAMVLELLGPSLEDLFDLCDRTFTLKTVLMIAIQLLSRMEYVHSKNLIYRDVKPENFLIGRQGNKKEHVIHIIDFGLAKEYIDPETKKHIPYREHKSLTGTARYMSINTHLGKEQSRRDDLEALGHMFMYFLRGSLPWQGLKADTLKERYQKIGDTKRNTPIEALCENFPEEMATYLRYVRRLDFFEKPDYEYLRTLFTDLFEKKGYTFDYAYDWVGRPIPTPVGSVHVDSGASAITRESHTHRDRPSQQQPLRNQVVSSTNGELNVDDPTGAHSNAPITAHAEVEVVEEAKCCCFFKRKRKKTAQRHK
T9 sequence (P35916 25-1363): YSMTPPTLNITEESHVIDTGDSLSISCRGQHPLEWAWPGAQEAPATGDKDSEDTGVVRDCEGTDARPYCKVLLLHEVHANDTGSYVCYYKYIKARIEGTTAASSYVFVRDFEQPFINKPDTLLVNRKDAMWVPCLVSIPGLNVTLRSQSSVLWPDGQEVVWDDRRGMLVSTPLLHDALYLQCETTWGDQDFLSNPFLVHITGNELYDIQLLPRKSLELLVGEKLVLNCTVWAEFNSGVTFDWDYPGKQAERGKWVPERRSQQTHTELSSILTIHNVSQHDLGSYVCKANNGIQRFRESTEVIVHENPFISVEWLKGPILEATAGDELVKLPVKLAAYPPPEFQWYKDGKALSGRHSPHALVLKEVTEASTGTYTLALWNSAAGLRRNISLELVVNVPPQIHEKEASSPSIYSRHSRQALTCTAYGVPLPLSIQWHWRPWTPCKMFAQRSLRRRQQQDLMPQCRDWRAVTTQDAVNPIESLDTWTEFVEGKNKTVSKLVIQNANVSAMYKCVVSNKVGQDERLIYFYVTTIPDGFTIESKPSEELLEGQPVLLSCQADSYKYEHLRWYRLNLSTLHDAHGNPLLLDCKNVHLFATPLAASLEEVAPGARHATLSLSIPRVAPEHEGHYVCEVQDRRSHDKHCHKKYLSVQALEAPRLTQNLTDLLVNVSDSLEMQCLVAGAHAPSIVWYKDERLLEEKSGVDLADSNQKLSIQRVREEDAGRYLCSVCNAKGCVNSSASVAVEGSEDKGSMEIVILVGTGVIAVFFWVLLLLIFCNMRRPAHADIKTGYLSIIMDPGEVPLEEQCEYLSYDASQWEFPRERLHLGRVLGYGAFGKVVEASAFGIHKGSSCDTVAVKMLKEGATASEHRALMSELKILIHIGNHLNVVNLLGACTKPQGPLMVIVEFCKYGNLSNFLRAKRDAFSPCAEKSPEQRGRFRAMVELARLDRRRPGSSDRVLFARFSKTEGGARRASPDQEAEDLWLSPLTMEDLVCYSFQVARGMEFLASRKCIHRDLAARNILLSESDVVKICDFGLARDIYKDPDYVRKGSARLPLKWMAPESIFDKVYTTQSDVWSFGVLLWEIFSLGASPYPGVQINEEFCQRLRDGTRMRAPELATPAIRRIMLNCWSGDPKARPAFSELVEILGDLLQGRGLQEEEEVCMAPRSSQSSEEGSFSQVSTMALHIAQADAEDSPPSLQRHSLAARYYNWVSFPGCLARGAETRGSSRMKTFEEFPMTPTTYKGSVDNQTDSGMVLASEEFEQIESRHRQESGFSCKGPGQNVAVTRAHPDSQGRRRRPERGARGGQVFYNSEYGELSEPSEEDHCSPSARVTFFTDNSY

SMILES | remaining binding at 1 µM (GRK7) [%] | remaining binding at 1 µM (YANK3) [%] | remaining binding at 1 µM (FER) [%] | remaining binding at 1 µM (HCK) [%] | remaining binding at 1 µM (LIMK1) [%] | remaining binding at 1 µM (CDK2) [%] | remaining binding at 1 µM (YSK1) [%] | remaining binding at 1 µM (SgK110) [%] | remaining binding at 1 µM (FLT4) [%] | remaining binding at 1 µM (CSNK1A1) [%] | remaining binding at 1 µM (CDK7) [%] | remaining binding at 1 µM (CSNK1G1) [%] | remaining binding at 1 µM (FGFR2) [%] | remaining binding at 1 µM [1] [%] | remaining binding at 1 µM (LATS2) [%]
Clc1cc(NCC2CC2)c2ncc(-c3ccc4[nH]ncc4c3)n2n1 [compound 2, 6-Chloro-N-(cyclopropylmethyl)-3-(1H-indazol-5-yl)imidazo[1,2-b]pyridazin-8-amine] | 97 | 100 | 98 | 80 | 100 | 88 | 92 | 100 | 95 | 100 | 68 | 100 | 85 | 94 | 58
O=C(CN1CCOCC1)N[C@H]1CC[C@H](Nc2cc(Cl)nn3c(-c4ccc5[nH]ncc5c4)cnc23)CC1 [compound 26] | 63 | 99 | 100 | 93 | 97 | 95 | 100 | 100 | 83 | 58 | 16 | 95 | 91 | 50 | 73
CN1CCC(CNc2cc(Cl)nn3c(-c4cc5nc(Nc6ccccc6)[nH]c5cc4F)cnc23)CC1 [compound 31, 6-Chloro-3-(6-fluoro-2-(phenylamino)-1H-benzo[d]imidazol-5-yl)-N-((1-methylpiperidin-4-yl)methyl)imidazo[1,2-b]pyridazin-8-amine] | 77 | 73 | 82 | 87 | 98 | 98 | 99 | 100 | 100 | 97 | 61 | 100 | 84 | 87 | 94

From paper PMC6437697 (Journal of Medicinal Chemistry, 2019)
